Drawing on PubChem BioAssay AID328 (DTP/NCI, 2004), this text covers T/C for ten compounds.

In the test the test system is BDF1 mice, P388 leukemia ip, median survival T/C. As to the kind of experiment: NCI In Vivo Anticancer Drug Screen. Data for tumor model P388 Leukemia (intraperitoneal) in B6D2F1 (BDF1) mice. Conditions: endpoint: median survival time, higher = longer survival. The procedure, abridged: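 Steps: implant the tumour, treat one group with compound and another with vehicle, record survival, then divide treated by control.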

Where [1] appears, read: dose: 50.0 mg/kg/injection, schedule: Q01DX009 (ip), vehicle: Klucel (hydroxypropylcellulose) (HPC).
The mark [2] stands for this setting: dose: 100.0 mg/kg/injection, schedule: Q01DX009 (ip), vehicle: Klucel (hydroxypropylcellulose) (HPC).
The mark [3] stands for this setting: dose: 400.0 mg/kg/injection, schedule: Q04DX003 (ip), vehicle: Klucel (hydroxypropylcellulose) (HPC).
[4] abbreviates: dose: 100.0 mg/kg/injection, schedule: Q01DX009 (ip), vehicle: saline with Tween-80.
[5] abbreviates: dose: 100.0 mg/kg/injection, schedule: Q04DX003 (ip), vehicle: saline with Tween-80.

Each structure is given as a SMILES string. Several values for one entry are separate records, joined by “and”; a condition that tells them apart may be missing. Identical values can stand only once. Inconclusive results and toxic doses are left out. Residues, ends and D or L forms follow the SMILES beside them. *: point of attachment. Trt = c1ccc(C(c2ccccc2)(c2ccccc2)*)cc1

Take `ClC(Cl)(Cl)c1ccc(C(Cl)(Cl)Cl)cc1`: the T/C by setting is: (dose: 6.0 mg/kg/injection, schedule: Q01DX009 (ip), vehicle: Klucel (hydroxypropylcellulose) (HPC)) 100 % of control; (dose: 6.25 mg/kg/injection, schedule: Q01DX009 (ip), vehicle: Klucel (hydroxypropylcellulose) (HPC)) 90 % of control; (dose: 12.0 mg/kg/injection, schedule: Q01DX009 (ip), vehicle: Klucel (hydroxypropylcellulose) (HPC)) 104 % of control; (dose: 12.5 mg/kg/injection, schedule: Q01DX009 (ip), vehicle: Klucel (hydroxypropylcellulose) (HPC)) 90 % of control; (dose: 12.5 mg/kg/injection, schedule: Q04DX003 (ip), vehicle: Klucel (hydroxypropylcellulose) (HPC)) 105 % of control; (dose: 22.0 mg/kg/injection, schedule: Q04DX003 (ip), vehicle: Klucel (hydroxypropylcellulose) (HPC)) 96 % of control and 118 % of control. Besides, the T/C by setting is: (dose: 25.0 mg/kg/injection, schedule: Q01DX009 (ip), vehicle: Klucel (hydroxypropylcellulose) (HPC)) 104 % of control; (dose: 25.0 mg/kg/injection, schedule: Q04DX003 (ip), vehicle: Klucel (hydroxypropylcellulose) (HPC)) 120 % of control; (dose: 33.0 mg/kg/injection, schedule: Q04DX003 (ip), vehicle: Klucel (hydroxypropylcellulose) (HPC)) 119 % of control and 122 % of control; under setting [1], 90 % of control and 100 % of control; (dose: 75.0 mg/kg/injection, schedule: Q04DX003 (ip), vehicle: Klucel (hydroxypropylcellulose) (HPC)) 100 % of control; under setting [2], 100 % of control. In addition, the T/C is, setting by setting: (dose: 150.0 mg/kg/injection, schedule: Q04DX003 (ip), vehicle: Klucel (hydroxypropylcellulose) (HPC)) 109 % of control; (dose: 250.0 mg/kg/injection, schedule: Q04DX003 (ip), vehicle: Klucel (hydroxypropylcellulose) (HPC)) 100 % of control; under setting [3], 104 % of control.
For `CCO/C=C1\SC(=S)N(c2ccc(C(=O)O)cc2)C1=O`, the T/C by setting is: (dose: 11.0 mg/kg/injection, schedule: Q01DX009 (ip), vehicle: saline) 104 % of control; (dose: 25.0 mg/kg/injection, schedule: Q01DX009 (ip), vehicle: saline) 122 % of control; (dose: 37.5 mg/kg/injection, schedule: Q01DX009 (ip), vehicle: saline) 100 % of control; under setting [4], 116 % of control.
Turning to `Cc1cc(NS(=O)(=O)c2ccccc2)ccc1NS(=O)(=O)c1ccccc1`, the T/C was 87 % of control (dose: 75.0 mg/kg/injection, schedule: Q01DX009 (ip), vehicle: Klucel (hydroxypropylcellulose) (HPC)); 104 % of control (dose: 100.0 mg/kg/injection, schedule: Q04DX003 (ip), vehicle: Klucel (hydroxypropylcellulose) (HPC)); 100 % of control (dose: 150.0 mg/kg/injection, schedule: Q01DX009 (ip), vehicle: Klucel (hydroxypropylcellulose) (HPC)); 100 % of control (dose: 200.0 mg/kg/injection, schedule: Q04DX003 (ip), vehicle: Klucel (hydroxypropylcellulose) (HPC)); 87 % of control (dose: 300.0 mg/kg/injection, schedule: Q01DX009 (ip), vehicle: Klucel (hydroxypropylcellulose) (HPC)); 95 % of control under setting [3].
In the case of `COc1ccc(C2c3cc4c(c(OC)c3CC3OCC(=O)C32)OCO4)cc1OC` (stereo not given), the T/C reads like this: (dose: 44.8 mg/kg/injection, schedule: Q01DX010 (ip), vehicle: saline) 163 % of control; (dose: 50.0 mg/kg/injection, schedule: Q01DX001 (ip), vehicle: saline) 100 % of control; (dose: 89.5 mg/kg/injection, schedule: Q01DX010 (ip), vehicle: saline) 172 % of control; (dose: 100.0 mg/kg/injection, schedule: Q01DX001 (ip), vehicle: saline) 109 % of control; (dose: 100.0 mg/kg/injection, schedule: Q01DX010 (ip), vehicle: other) 172 % of control; (dose: 179.0 mg/kg/injection, schedule: Q01DX010 (ip), vehicle: saline) 100 % of control. In addition, the T/C was 157 % of control (dose: 200.0 mg/kg/injection, schedule: Q01DX001 (ip), vehicle: other); 104 % of control (dose: 200.0 mg/kg/injection, schedule: Q01DX001 (ip), vehicle: saline); 189 % of control (dose: 400.0 mg/kg/injection, schedule: Q01DX001 (ip), vehicle: other); 122 % of control (dose: 400.0 mg/kg/injection, schedule: Q01DX001 (ip), vehicle: saline).
On to `C=CCSc1nc2ccccc2c(=O)n1-c1cc(OC)c(Cl)cc1OC`, for which the T/C was 88 % of control under setting [1] and 96 % of control under setting [2].
Take `CCOC(=O)C1CSC2(CCCCC2)N1` (stereo not given): the T/C was 92 % of control (dose: 50.0 mg/kg/injection, schedule: Q01DX009 (ip), vehicle: saline); 94 % of control (dose: 100.0 mg/kg/injection, schedule: Q01DX009 (ip), vehicle: saline); 109 % of control (dose: 200.0 mg/kg/injection, schedule: Q01DX009 (ip), vehicle: saline).
As for `CCN(CC)CCOc1ccccc1C`, the T/C was 107 % of control (dose: 20.0 mg/kg/injection, schedule: Q01DX009 (ip), vehicle: saline); 100 % of control (dose: 20.0 mg/kg/injection, schedule: Q04DX003 (ip), vehicle: saline); 100 % of control (dose: 40.0 mg/kg/injection, schedule: Q01DX009 (ip), vehicle: saline); 91 % of control (dose: 40.0 mg/kg/injection, schedule: Q04DX003 (ip), vehicle: saline); 89 % of control (dose: 80.0 mg/kg/injection, schedule: Q01DX009 (ip), vehicle: saline); 91 % of control (dose: 80.0 mg/kg/injection, schedule: Q04DX003 (ip), vehicle: saline).
As for `CC(Cc1ccccc1)CC(C(=O)O)C(=O)O` (stereo not given), the T/C is 100 % of control under setting [5] and 99 % of control (dose: 200.0 mg/kg/injection, schedule: Q04DX003 (ip), vehicle: saline with Tween-80).
Regarding `COC(=O)C(NC(=O)C(N)CSC(c1ccccc1)(c1ccccc1)c1ccccc1)C(C)C` (stereo not given) (H-Cys(Trt)-Val-OMe; configuration not given here), the T/C is, setting by setting: (dose: 50.0 mg/kg/injection, schedule: Q01DX009 (sc), vehicle: olive oil, sesame oil, peanut oil) 117 % of control; (dose: 50.0 mg/kg/injection, schedule: Q04DX003 (sc), vehicle: olive oil, sesame oil, peanut oil) 90 % of control; (dose: 100.0 mg/kg/injection, schedule: Q01DX009 (sc), vehicle: olive oil, sesame oil, peanut oil) 104 % of control; (dose: 100.0 mg/kg/injection, schedule: Q04DX003 (sc), vehicle: olive oil, sesame oil, peanut oil) 90 % of control; (dose: 200.0 mg/kg/injection, schedule: Q01DX009 (sc), vehicle: olive oil, sesame oil, peanut oil) 104 % of control; (dose: 200.0 mg/kg/injection, schedule: Q04DX003 (sc), vehicle: olive oil, sesame oil, peanut oil) 100 % of control.
For `COC(=O)CCC1([N+](=O)[O-])CCCCC1`, the T/C was 87 % of control (dose: 25.0 mg/kg/injection, schedule: Q01DX009 (ip), vehicle: saline with Tween-80); 92 % of control (dose: 25.0 mg/kg/injection, schedule: Q04DX003 (ip), vehicle: saline with Tween-80); 95 % of control (dose: 50.0 mg/kg/injection, schedule: Q01DX009 (ip), vehicle: saline with Tween-80); 92 % of control (dose: 50.0 mg/kg/injection, schedule: Q04DX003 (ip), vehicle: saline with Tween-80); 95 % of control under setting [4]; 88 % of control under setting [5].
